For 14 molecules, IC50, DC50 and Dmax results are on record in US11065231B2, “Compounds and methods for the targeted degradation of interleukin-1 receptor- associated kinase 4 polypeptides” (Arvinas Operations, Inc., priority 2017, dated 2021).

In test [1] the target is T1, IRAK4 (Homo sapiens (Human), UniProt Q9NWZ3). The experiment in a line: Biochemical Z'-Lyte FRET assay for IRAK4 kinase inhibition. The note with it: 2 nM enzyme, 1 mM ATP, 2 μM substrate. The procedure: Biochemical Assay for IRAK4 Kinase Inhibition.
T1 sequence (Q9NWZ3 whole entry): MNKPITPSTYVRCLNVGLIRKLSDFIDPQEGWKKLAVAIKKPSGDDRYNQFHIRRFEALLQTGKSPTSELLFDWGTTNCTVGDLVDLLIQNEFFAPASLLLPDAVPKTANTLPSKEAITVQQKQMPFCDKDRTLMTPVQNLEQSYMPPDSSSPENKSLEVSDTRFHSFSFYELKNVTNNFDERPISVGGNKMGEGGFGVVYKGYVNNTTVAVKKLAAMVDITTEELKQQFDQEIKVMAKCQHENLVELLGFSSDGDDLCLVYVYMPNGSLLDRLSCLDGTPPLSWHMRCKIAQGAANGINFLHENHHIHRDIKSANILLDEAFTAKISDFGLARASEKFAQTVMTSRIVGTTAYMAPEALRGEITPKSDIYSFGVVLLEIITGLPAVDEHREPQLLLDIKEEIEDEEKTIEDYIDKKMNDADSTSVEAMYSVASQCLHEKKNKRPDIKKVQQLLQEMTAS
A Z′-Lyte assay based on a fluorescence resonance energy transfer (FRET) readout was developed for measuring IRAK4-dependent phosphorylation of a FRET-peptide substrate as described by Thermo Fisher Scientific (Grand Island, N.Y.). At a starting concentration of 1.5 mM, the identified compounds were serially diluted with 100% dimethyl sulfoxide (DMSO) in 3-fold increments, into Greiner bio-one 96-well plates (cat. #: 650201, Greiner bio-one, Monroe, N.C.). Compounds were then transferred to intermediate Greiner bio-one 96-well plates and diluted 10-fold with Kinase assay buffer (25 mM HEPES, pH 7.5, 10 mM MgCl2, 10 mM MnCl2, 1 mM EGTA, and 0.01% Brij-35, 2 mM DTT). Three μL of the serially diluted compounds were then transferred in duplicate to low-volume 384-well black proxiplates (cat. #: 6008269; Perkin Elmer, Akron, Ohio), to give duplicate twelve-point concentration curves. Six μl of a 2.5× solution of IRAK4 enzyme (cat #: 40064, BPS Bioscience, San Diego, Calif.) in kinase buffer was added to each well, followed by a 10 minutes pre-incubation step. Reactions were initiated by adding 6 μl of a 2.5× substrate mix of ATP and Z′-Lyte Ser/Thr 7 peptide (cat. #: PV3180, Thermo Fisher Scientific, Grand Island, N.Y.) and proceeded at room temperature for 1 hour. The final concentration of key reagents in the 15 uL kinase reactions were 2 μM substrate, 2 nM enzyme, and 1 mM ATP, with dose responses starting at 30 μM compound. At the end of the kinase reactions, 5 μl of developing solution (as instructed in for cat. #: PV3180, Thermo Fisher Scientific, Grand Island, N.Y.) was added to each well and incubated at room temperature for 1 hour. All wells were read on an Envision 2105 Multilabel fluorescence plate reader (Perkin Elmer, Waltham, Mass.) at 400 nm excitation and 460 nm/530 nm emission. Plus and minus 100% inhibition controls were used to calculate percent inhibition and IC50 curves were generated using Graphpad Prism (La Jolla, Calif.).

For test [2], the target named is T1, IRAK4. The experiment in a line: Western blot assay for assessing degradation of IRAK4 in MCF7 cells. Format: cell-based. Particulars: Table 5, IRAK4 degradation, 24 hour incubation; for DC50: read-out: IRAK4 DC50; for Dmax: read-out: IRAK4 Dmax (%). The procedure: Western Blot Assay for Assessing Degradation of IRAK4.
MCF7 cells, purchased from ATCC (Manassas, Va.), were used at a passage range of 2-19. Cells were seeded at 50% confluency in 96-well plates at 180 μl/well in cell media (Dulbecco's Modified Eagle medium/nutrient F-12 Ham-10% Fetal Bovine Serum) and incubated overnight. The next morning, compounds were serially diluted and added (20 μl into 180 μl media) at a final DMSO concentration of 0.1%. Cells were rinsed with cell media and replaced with compounds in media, followed by incubation overnight. After a 24 hour incubation with compound, cell were harvested (90-100% confluent at harvest). Cells were then washed once with 100 μl of Dulbecco's hosphate-buffered saline and then lysed with 40 μl of lysis buffer (1×RIPA+HALT protease inhibitor+HALT phosphatase inhibitor) on ice for 10 minutes. Lysates were then cleaned by filtration in 1.2 µm filter plates followed by western blotting. For each sample, 30 μl of lysate were added to 10 μl of 4×LDS sample buffer, then denatured at 95° C. for 5 minutes in the thermal cycler and placed on ice. Fifteen μL of each sample were then loaded on 4-15% Tris/Glycine gels and run for 25 minutes at 250 (constant) volts in 1× Tris/Glycine buffer. Protein was transferred from gels to nitrocellulose using a BioRad Turbo dry-transfer unit with the Turbo/midi default program. All blots were rinsed with ddH2O and blocked for 1 hour at room temperature in 5% bovine serum albumin (BSA) in tris-buffered saline-Tween 20 (TBS-T) (0.1%) on rocker. Blots were exposed to primary antibody in 5% BSA in TBS-T (0.1%) overnight at 4° C. on rocker. Primary antibodies, diluted 1:1000 in […], were as follows: anti-IRAK4 (cat. #: ab119942, Abcam, Cambridge, Mass.), anti-IRAK1 (cat. #: CST 4504S, Cell Signaling Technology, Danvers, Mass.), and anti-Beta-actin (Cat. #: ab8227, Abcam, Cambridge, Mass.). Blots were then washed with TBS-T (0.1%) three times for 5 minutes on a rocker at room temperature. Secondary antibody (1:18,000 anti-rabbit-HRP and/or anti-mouse-HRP in 5% BSA in TBST (0.1%) was then added, and blots incubated at room temperature rocker for 1 hour. Blots were washed 3 times in TBS-T (0.1%) for 5 minutes at room temperature on the rocker. Signal was developed with Femto Max substrate for 5 minutes and blots read on a ChemiDoc. Percent degradation was assessed by comparing IRAK4 signal in compound vs. DMSO treated lysates.
For orientation: A western blot detects proteins with antibodies after separation by electrophoresis.

Each structure is given as a SMILES string. Bounds are passed on as bounds.

At IRAK4 [1], `Cc1ncsc1-c1ccc(CNC(=O)[C@@H]2C[C@@H](O)CN2C(=O)[C@@H](NC(=O)COCCN2CCN(Cc3ccc4c(c3)nc(NC(=O)c3cccc(C(F)(F)F)c3)n4C3CCC(CO)CC3)CC2)C(C)(C)C)cc1` (mixture of isomers) [compound 11, (2S,4R)-4-hydroxy-1-((S)-2-(2-(2-(4-((1-((1SR,4SR)-4-(hydroxymethyl)cyclohexyl)-2-(3-(trifluoromethyl)benzamido)-1H-benzo[d]imidazol-5-yl)methyl)piperazin-1-yl)ethoxy)acetamido)-3,3-dimethylbutanoyl)-N-(4-(4-methylthiazol-5-yl)benzyl)pyrrolidine-2-carboxamide] yielded an IC50 of 0.3 to 1 µM. On IRAK4 [2], the DC50 was no less than 1 µM and the Dmax was greater than 70%.
Take `Cc1ncsc1-c1ccc(CNC(=O)[C@@H]2C[C@@H](O)CN2C(=O)[C@@H](NC(=O)COCCOCCN2CCN(Cc3ccc4c(c3)nc(NC(=O)c3cccc(C(F)(F)F)c3)n4[C@H]3CC[C@@H](CO)CC3)CC2)C(C)(C)C)cc1` (racemic) [compound 12, (2S,4R)-4-hydroxy-1-((S)-2-(2-(2-(2-(4-((1-((1SR,4SR)-4-(hydroxymethyl)cyclohexyl)-2-(3-(trifluoromethyl)benzamido)-1H-benzo[d]imidazol-5-yl)methyl)piperazin-1-yl)ethoxy)ethoxy)acetamido)-3,3-dimethylbutanoyl)-N-(4-(4-methylthiazol-5-yl)benzyl)pyrrolidine-2-carboxamide]: the IC50 against IRAK4 [1] was 0.03 to 0.1 µM. The DC50 at IRAK4 [2] was no less than 1 µM.
As for `O=C1CCC(N2C(=O)c3ccc(OCCN4CCN(Cc5ccc6c(c5)nc(NC(=O)c5cccc(C(F)(F)F)c5)n6C5CCC(CO)CC5)CC4)cc3C2=O)C(=O)N1` (stereo not drawn) [compound 1, N-(5-((4-(2-((2-(2,6-dioxopiperidin-3-yl)-1,3-dioxoisoindolin-5-yl)oxy)ethyl)piperazin-1-yl)methyl)-1-((1s,4s)-4-(hydroxymethyl)cyclohexyl)-1H-benzo[d]imidazol-2-yl)-3-(trifluoromethyl)benzamide], on IRAK4 [2], the Dmax was 30 to 50%.
On the same count and under the same terms, with `O=C1CCC(N2C(=O)c3ccc(OCCN4CCC(CN5CCN(Cc6ccc7c(c6)nc(NC(=O)c6cccc(C(F)(F)F)c6)n7C6CCC(CO)CC6)CC5)CC4)cc3C2=O)C(=O)N1` (stereo not drawn) [compound 10] the figure was greater than 70%.
On to `N#Cc1ccc2ncnc(N[C@H]3CC[C@@H](N4CCN(S(=O)(=O)CCOCCOCCOc5ccc6c(c5)C(=O)N(C5CCC(=O)NC5=O)C6=O)CC4)CC3)c2c1` (stereo partly drawn) [compound 37], for which the IC50 at IRAK4 [1] was no less than 1 µM.
As to `N#Cc1ccc2ncnc(N[C@H]3CC[C@H](N4CCN(S(=O)(=O)CCOCCOCCOCCOc5ccc6c(c5)C(=O)N(C5CCC(=O)NC5=O)C6=O)CC4)CC3)c2c1` (stereo partly drawn) [compound 38], at IRAK4 [1], the IC50 is no less than 1 µM.
On the same count and under the same terms, for `N#Cc1ccc2ncnc(N[C@H]3CC[C@@H](N4CCN(S(=O)(=O)CCOCCOCCOCCOc5ccc6c(c5)C(=O)N(C5CCC(=O)NC5=O)C6=O)CC4)CC3)c2c1` (stereo partly drawn) [compound 39] the value was no less than 1 µM.
Consider `O=C1CCC(N2C(=O)c3ccc(OCCOCCOCCOCC4CCC(n5c(NC(=O)c6cccc(C(F)(F)F)c6)nc6cc(CN7CCCCC7)ccc65)CC4)cc3C2=O)C(=O)N1` (stereo not drawn) [compound 43, N-(1-((1s,4s)-4-((2-(2-(2-((2-(2,6-dioxopiperidin-3-yl)-1,3-dioxoisoindolin-5-yl)oxy)ethoxy)ethoxy)ethoxy)methyl)cyclohexyl)-5-(piperidin-1-ylmethyl)-1H-benzo[d]imidazol-2-yl)-3-(trifluoromethyl)benzamide], for which the DC50 on IRAK4 [2] is no less than 1 µM.
With `O=C1CCC(N2C(=O)c3ccc(OCCOC[C@H]4CC[C@@H](n5c(NC(=O)c6cccc(C(F)(F)F)c6)nc6cc(F)ccc65)CC4)cc3C2=O)C(=O)N1` (stereo partly drawn) [compound 45], the IC50 against IRAK4 [1] was no less than 1 µM.
The same measure, in the same setting: for `COc1cccc(-n2c(NC(=O)c3cccc(C(F)(F)F)c3)nc3cc(CN4CCN(CCOCCOc5ccc6c(c5)C(=O)N(C5CCC(=O)NC5=O)C6=O)CC4)ccc32)c1` (stereo not drawn) [compound 57, N-(5-((4-(2-(2-((2-(2,6-dioxopiperidin-3-yl)-1,3-dioxoisoindolin-5-yl)oxy)ethoxy)ethyl)piperazin-1-yl)methyl)-1-(3-methoxyphenyl)-1H-benzo[d]imidazol-2-yl)-3-(trifluoromethyl)benzamide] the value was no less than 1 µM.
On the same count and under the same terms, with `COc1cc2nn(C3CCN(CCOCCOCCNc4cccc5c4C(=O)N(C4CCC(=O)NC4=O)C5=O)CC3)cc2cc1NC(=O)c1cccc(C(F)(F)F)n1` (stereo not drawn) [compound 62, N-(2-(1-(2-(2-(2-((2-(2,6-dioxopiperidin-3-yl)-1,3-dioxoisoindolin-4-yl)amino)ethoxy)ethoxy)ethyl)piperadin-4-yl)-6-methoxy-2H-indazol-5-yl)-6-(trifluoromethyl)picolinamide] the figure was less than 0.03 µM.
The same measure, in the same setting: with `COc1cc2nn(C3CCN(CCOCCOCCOCCNc4cccc5c4C(=O)N(C4CCC(=O)NC4=O)C5=O)CC3)cc2cc1NC(=O)c1cccc(C(F)(F)F)n1` (stereo not drawn) [compound 64, N-(2-(1-(2-(2-(2-(2-((2-(2,6-dioxopiperidin-3-yl)-1,3-dioxoisoindolin-4-yl)amino)ethoxy)ethoxy)ethoxy)ethyl)piperadin-4-yl)-6-methoxy-2H-indazol-5-yl)-6-(trifluoromethyl)picolinamide] the figure was less than 0.03 µM.
For the molecule `O=C1CCC(N2C(=O)c3cccc(NCCOCCOCCN4CCN(Cc5ccc6c(c5)nc(NC(=O)c5cccc(C(F)(F)F)c5)n6C5CCC(CO)CC5)CC4)c3C2=O)C(=O)N1` (stereo not drawn) [compound 66, N-(5-((4-(2-(2-(2-((2-(2,6-dioxopiperidin-3-yl)-1,3-dioxoisoindolin-4-yl)amino)ethoxy)ethoxy)ethyl)piperazin-1-yl)methyl)-1-((1s,4s)-4-(hydroxymethyl)cyclohexyl)-1H-benzo[d]imidazol-2-yl)-3-(trifluoromethyl)benzamide], the Dmax on IRAK4 [2] is 50 to 70%.
`O=C1CCC(N2C(=O)c3ccc(OC4CCC(CN5CCN(Cc6ccc7c(c6)nc(NC(=O)c6cccc(C(F)(F)F)c6)n7C6CCC(CO)CC6)CC5)CC4)cc3C2=O)C(=O)N1` (stereo not drawn) [compound 67, N-(5-((4-((4-((2-(2,6-dioxopiperidin-3-yl)-1,3-dioxoisoindolin-5-yl)oxy)cycloethyl)methyl)piperazin-1-yl)methyl)-1-((1s,4s)-4-(hydroxymethyl)cyclohexyl)-1H-benzo[d]imidazol-2-yl)-3-(trifluoromethyl)benzamide]: on IRAK4 [2], the DC50 was 0.03 to 0.1 µM and the Dmax was greater than 70%.

By IC50 is commonly meant the point on the concentration scale where inhibition reaches its midpoint. Lower therefore signals inhibition by little substance. As usually defined, the DC50 is the midpoint of the concentration-degradation curve. A word on the Dmax: it is the largest share of the target that was removed.
